Data as given in patent publication US7842805B2, “Pharmaceutical compounds as activators of caspases and inducers of apoptosis and the use thereof” (Myrexis, Inc., priority 2005, dated 2010).

Tests used:
[1] = test system: T-47D; assay: Caspase cascade activation assay (Ac-DEVD-R110 fluorogenic substrate); format: cell-based, Human; settings: T-47D (24 hr); for EC50: Homo sapiens, T47D, read-out: Caspase potency EC50; for Caspase activity (Ratio): ratio of net RFU of test compound to control
Method: Human breast cancer cell lines T-47D and DLD-1 were grown according to media component mixtures designated by American Type Culture Collection+10% FCS (Invitrogen Corporation), in a 5% CO2-95% humidity incubator at 37° C. T-47D and DLD-1 cells were maintained at a cell density between 50 and 80% confluency at a cell density of 0.1 to 0.6×10^6 cells/mL. Cells were harvested at 600×g and resuspended at 0.65×10^6 cells/mL into appropriate media+10% FCS. An aliquot of 22.5 μL of cells was added to a well of a 384-well microtiter plate containing 2.5 μL of a 10% DMSO in RPMI-1640 media solution containing 0.16 to 100 μM of benzo[d][1,2,3]triazin-4-yl-(4-methoxyphenyl)-methyl-amine or other test compound (0.016 to 10 μM final). An aliquot of 22.5 μL of cells was added to a well of a 384-well microtiter plate containing 2.5 μL of a 10% DMSO in RPMI-1640 media solution without test compound as the control sample. […] After incubation, the samples were removed from the incubator and 25 μL of a solution containing 14 μM of N—(Ac-DEVD)-N′-ethoxycarbonyl-R110 fluorogenic substrate (Cytovia, Inc.; WO99/18856), 20% sucrose (Sigma), 20 mM DTT (Sigma), 200 mM NaCl (Sigma), 40 mM Na PIPES buffer pH 7.2 (Sigma), and 500 μg/mL lysolecithin (Calbiochem) was added. The samples were mixed by agitation and incubated at room temperature. Using a fluorescent plate reader (Model SPECTRAfluor Plus, Tecan), an initial reading (T=0) was made approximately 1-2 min after addition of the substrate solution, employing excitation at 485 nm and emission at 530 nm, to determine the background fluorescence of the control sample. After the 3 h incubation, the samples were read for fluorescence as above (T=3 h).
The Relative Fluorescence Unit values (RFU) were used to calculate the sample readings as follows: RFU(T=3h)−Control RFU(T=0)=Net RFU(T=3h)
The activity of caspase cascade activation was determined by the ratio of the net RFU value for benzo[d][1,2,3]triazin-4-yl-(4-methoxy-phenyl)-methyl-amine or other test compounds to that of control samples. The EC50 (nM) was determined by a sigmoidal dose-response calculation (Prism 3.0, GraphPad Software Inc.).

[2] = test system: H1299; assay: Inhibition of cell proliferation (GI50, CellTiter-Glo); format: cell-based; settings: Homo sapiens, NCI-H1299; H1299 cells, 48 h
Method: (§1) T-47D, HT29, H1299, MX-1 and MDAMB435 cells were grown and harvested as in Example 29. An aliquot of […] of cells (4.4×10^4 cells/mL) was added to a well of a 96-well microtiter plate containing 5 μL of a 10% DMSO in RPMI-1640 media solution containing 10 nM to 100 μM of benzo[d][1,2,3]triazin-4-yl-(4-methoxy-phenyl)methyl-amine (1 nM to 10 μM final). An aliquot of 45 μL of cells was added to a well of a 96-well microtiter plate containing 5 μL of a 10% DMSO in RPMI-1640 media solution without compound as the control sample for maximal cell proliferation (LMax). The samples were mixed by agitation and then incubated at 37° C. for 48 h in a 5% CO2-95% humidity incubator. After incubation, the samples were removed from the incubator and 25 μL of CellTiter-Glo™ reagent (Promega) was added. The samples were mixed by agitation and incubated at room temperature for 10-15 min. Plates were then read using a luminescent plate reader (Model SPECTRAfluor Plus, Tecan) to give Ltest values.
(§2) Baseline for GI50 (dose for 50% inhibition of cell proliferation) of initial cell numbers was determined by adding an aliquot of 45 μL of cells or 45 μL of media, respectively, to wells of a 96-well microtiter plate containing 5 μL of a 10% DMSO in RPMI-1640 media solution. The samples were mixed by agitation and then incubated at 37° C. for 0.5 h in a 5% CO2-95% humidity incubator. After incubation, the samples were removed from the incubator and 25 μL of CellTiter-Glo™ reagent (Promega) was added. The samples were mixed by agitation and incubated at 37° C. for 10-15 min at room temperature in a 5% CO2-95% humidity incubator. Fluorescence was read as above, (Lstart) defining luminescence for initial cell number used as baseline in GI50 determinations.
(§3) GI50 (dose for 50% inhibition of cell proliferation) is the concentration where [(LTest−Lstart)/(LMax−Lstart)]=0.5.

[3] = test system: HT29; assay: as above; format: cell-based; settings: Homo sapiens, HT-29; HT29 cells, 48 h
Method: as §1, §2, §3

[4] = test system: MDAMB435; assay: as above; format: cell-based; settings: Homo sapiens, MDA-MB-435; MDAMB435 cells, 48 h
Method: as §1, §2, §3

[5] = test system: MX-1; assay: as above; format: cell-based; settings: Homo sapiens, MX1; MX-1 cells, 48 h
Method: as §1, §2, §3

[6] = test system: T-47D; assay: as above; format: cell-based; settings: Homo sapiens, T47D; T-47D cells, 48 h
Method: as §1, §2, §3

Structure (SMILES)	EC50 [1] [nM]	Caspase activity (Ratio) [1]	GI50 [2] [nM]	GI50 [3] [nM]	GI50 [4] [nM]	GI50 [5] [nM]	GI50 [6] [nM]
COc1ccc(N(C)c2nnnc3ccccc23)cc1 [Example 1, Benzo[d][1,2,3]triazin-4-yl-(4-methoxy-phenyl)-methyl-amine]	16	9.3	40	50	7	50	50
COc1ccc(N(C)c2nncc3ccccc23)cc1 [Example 2, (4-Methoxy-phenyl)-methyl-phthalazin-1-yl-amine]	106	11.1	106	200	62	52	120
